The inhibition is the change of the read-out against control, counted positive when it falls.

“And” between values parts separate entries of the source, which are not always exact repeats. Equal entries are not always repeated. Where two headings read alike, the source gives them in different places.

In assay [1] the test system is GluN1/GluN2A/GluN2B triheteromers. The assay can be described thus: TEVC on Xenopus oocytes, GluN1/GluN2A/GluN2B triheteromers. The class given is cell-based, rat GluN1, rat GluN2A, mouse GluN2B. To be noted: 1 µM trans-OptoNAM-3 (dark). The text has this:
NMDARs exist as multiple subtypes in the brain that are formed by the combination of two GluN1 and either two identical (diheteromers) or different (triheteromers) GluN2 (GluN2A-D) subunits.[1] We assessed the selectivity of trans-OptoNAM-3 (dark PSS) for the other NMDAR subtypes.
(§1) We used cDNA coding for rat GluN1–1a (named GluN1 herein) (GenBank: U08261.1), rat GluN2A (GenBank: D13211.1), mouse GluN2B (GenBank: D10651.2), rat GluA1 flop (GenBank: M36418.2), and rat Myc-GluA2(Q)-flip (GenBank: AF164344.1) cloned into pcDNA3-based expression plasmids. GluK2 (GenBank: Z11548.1) corresponds to the fully RNA-edited version.[80] The GluN2B-ΔNTD construct is from ref[45] and GluN2B–N615K is from ref[81]. Single mutants GluN2B-Q110G and GluN1-L135H were from ref[19]. The GluA2 cDNA contains a Myc tag ([…]) fused between the signal peptide and the N-terminus sequences, and the GluA2 subunit is […] for its Q/R/N site (GluA2(Q)) to allow permeation of homomeric GluA2 receptors.[2] cDNAs coding for rat GluN2C (GenBank: M91563.1) and GluN2D subunits (GenBank: L31611.1) were in prK5 plasmids.
Expression of recombinant NMDA receptors was obtained by oocyte nuclear coinjection of 37 nL of a mixture of cDNAs (at 30 ng/μL) coding for GluN1–1a and various GluN2 subunits (ratio 1:1). The protocol in ref[43] was followed for the expression of GluN1/GluN2A/GluN2B triheteromers. […]

Assay [2] addresses GluN1/GluN2B-ΔNTD receptors (Rattus norvegicus (GluN1); Mus musculus (GluN2B), UniProt P35439+Q01097). Kind of assay: TEVC on Xenopus oocytes, GluN2B NTD-deleted receptors. The class given is cell-based. Particulars: for Relative current (IOpto/I0): GluN1/GluN2B-DeltaNTD.
Text: We finally investigated the location of the OptoNAM-3 binding-site on the receptor. […] The binding site for GluN2B-selective antagonists at the GluN1/GluN2B NTD dimer interface contains two partially overlapping pockets that accommodate GluN2B-selective NAMs of distinct chemical scaffolds:[19] either scaffolds related to ifenprodil or scaffolds related to another GluN2B-selective NAM called EVT-101.[47]
as §1
Expression of recombinant NMDA receptors was obtained by oocyte nuclear coinjection of 37 nL of a mixture of cDNAs (at 30 ng/μL) coding for GluN1–1a and various GluN2 subunits (ratio 1:1). The protocol in ref[43] was followed for the expression of GluN1/GluN2A/GluN2B triheteromers. The oocytes were transferred in 96-well plates filled with Barth solution (in mM: 88 NaCl, 1 KCl, 0.33 Ca(NO3)2, 0.41 CaCl2, 0.82 MgSO4, 2.4 NaHCO3, and 7.5 HEPES, pH adjusted to 7.3 with NaOH), supplemented with gentamicin ([…]) and 50 μM APV, a selective NMDA receptor antagonist. Plates were then stored at 18 °C for 24 h for GluN1/GluN2A expression and for 48––72 h for the expression of GluN1/Glu2B, GluN1/GluN2A/GluN2B, and mutants.
(§2) TEVC recordings were performed 1–3 days following injection. TEVC recordings were performed using an Oocyte Clamp amplifier OC-725 (Warner Instruments) and computer-controlled via a 1440A Digidata (Molecular Devices). Currents were sampled at 100 Hz and low-pass-filtered at 20 Hz using an 8-pole Bessel filter (900 Series, Frequency Devices Inc.). Data were collected with Clampfit 10.3. During the recording, the cells were continuously perfused with external recording Ringer solution at pH 7.3 (in mM: 100 NaCl, 0.3 BaCl2, 5 HEPES, and 2.5 KCl, pH adjustment to 7.3 by the addition of NaOH). The NMDA currents were induced by simultaneous application of L-glutamate and glycine (agonist solution) at saturating concentration (100 μM each), and DTPA (10 μM) to prevent receptor inhibition by ambient zinc (∼20 nM).[83] A control solution (100 μM glycine and 10 μM DTPA in Ringer pH 7.3) was used for washout of drug and test solutions. AMPA and kainate receptor currents were induced in the same conditions as NMDA currents (100 μM glutamate and glycine + 10 μM DTPA). Oocytes expressing GluK2 kainate receptors were treated with concanavalin A ([…], equivalent to 1.1 mg/mL) during 10 min before recording to decrease receptor desensitization. Unless notified, recordings were performed at a holding potential of −60 mV. All experiments were performed at room temperature.
OptoNAMs were diluted as stock solutions of 50 to 0.5 mM in DMSO. On the day of the experiment, they were diluted to the appropriate concentration in the recording solution and kept in the dark during the whole duration of the experiment to avoid photoconversion.

Assay [3] deals with T1, GluK2 kainate receptors (Rattus norvegicus, UniProt P42260, I567V/Q621R/Y571C).
T1 construct: expressed in transfected cells; host or cells: Xenopus laevis oocytes (mRNA injection)
T1 sequence (P42260 32-908 I567V/Y571C/Q621R): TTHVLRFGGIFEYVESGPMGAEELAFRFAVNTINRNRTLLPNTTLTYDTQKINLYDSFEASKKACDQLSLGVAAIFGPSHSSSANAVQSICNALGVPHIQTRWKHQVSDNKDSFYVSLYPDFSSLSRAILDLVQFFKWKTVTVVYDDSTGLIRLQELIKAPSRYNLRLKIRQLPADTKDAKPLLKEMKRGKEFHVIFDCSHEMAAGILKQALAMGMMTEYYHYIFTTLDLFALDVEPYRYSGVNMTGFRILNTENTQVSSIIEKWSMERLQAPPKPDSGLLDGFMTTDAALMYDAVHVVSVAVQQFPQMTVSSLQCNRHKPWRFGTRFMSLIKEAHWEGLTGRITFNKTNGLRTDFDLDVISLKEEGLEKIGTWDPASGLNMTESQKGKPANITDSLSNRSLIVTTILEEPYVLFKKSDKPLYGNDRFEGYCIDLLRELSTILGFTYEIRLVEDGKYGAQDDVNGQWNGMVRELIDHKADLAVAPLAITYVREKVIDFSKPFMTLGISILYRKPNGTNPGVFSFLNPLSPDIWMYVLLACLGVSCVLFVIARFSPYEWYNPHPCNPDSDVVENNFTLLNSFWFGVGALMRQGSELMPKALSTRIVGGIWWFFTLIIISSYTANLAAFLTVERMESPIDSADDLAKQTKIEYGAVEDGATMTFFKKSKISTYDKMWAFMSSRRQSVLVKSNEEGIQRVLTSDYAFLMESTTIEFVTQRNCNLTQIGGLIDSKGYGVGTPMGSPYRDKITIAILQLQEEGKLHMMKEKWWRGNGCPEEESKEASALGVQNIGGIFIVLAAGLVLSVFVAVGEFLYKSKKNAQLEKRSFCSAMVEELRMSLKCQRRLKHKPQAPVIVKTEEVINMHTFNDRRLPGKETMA
The assay can be described thus: TEVC on Xenopus oocytes, GluK2 kainate receptors. The class given is cell-based. On the set-up: Inhibition, individual values: scale not given here. To be noted: for Inhibition, individual values: GluK2, single cells.
Text: as §1
The expression of recombinant GluA1, GluA2(Q), and GluK2 receptors was obtained by oocyte injection of 50 nL of mRNAs (at 1 μg/μL). mRNAs were generated using the T7 (GluA1 and GluA2) and T3 (GluK2) mMessage mMachine transcription kits (Invitrogen) after cDNA linearization with the SacII restriction enzyme. The injected oocytes were stored in the same conditions as for NMDARs and used 72–96 h postinjection.
as §2
Oocytes expressing GluK2 receptors were treated with concanavalin A ([…]) before recording to decrease
receptor desensitization.

GluN1/GluN2B-ΔNTD receptors, sequence (Q01097 395-1482, stated change not applied, other chains not shown): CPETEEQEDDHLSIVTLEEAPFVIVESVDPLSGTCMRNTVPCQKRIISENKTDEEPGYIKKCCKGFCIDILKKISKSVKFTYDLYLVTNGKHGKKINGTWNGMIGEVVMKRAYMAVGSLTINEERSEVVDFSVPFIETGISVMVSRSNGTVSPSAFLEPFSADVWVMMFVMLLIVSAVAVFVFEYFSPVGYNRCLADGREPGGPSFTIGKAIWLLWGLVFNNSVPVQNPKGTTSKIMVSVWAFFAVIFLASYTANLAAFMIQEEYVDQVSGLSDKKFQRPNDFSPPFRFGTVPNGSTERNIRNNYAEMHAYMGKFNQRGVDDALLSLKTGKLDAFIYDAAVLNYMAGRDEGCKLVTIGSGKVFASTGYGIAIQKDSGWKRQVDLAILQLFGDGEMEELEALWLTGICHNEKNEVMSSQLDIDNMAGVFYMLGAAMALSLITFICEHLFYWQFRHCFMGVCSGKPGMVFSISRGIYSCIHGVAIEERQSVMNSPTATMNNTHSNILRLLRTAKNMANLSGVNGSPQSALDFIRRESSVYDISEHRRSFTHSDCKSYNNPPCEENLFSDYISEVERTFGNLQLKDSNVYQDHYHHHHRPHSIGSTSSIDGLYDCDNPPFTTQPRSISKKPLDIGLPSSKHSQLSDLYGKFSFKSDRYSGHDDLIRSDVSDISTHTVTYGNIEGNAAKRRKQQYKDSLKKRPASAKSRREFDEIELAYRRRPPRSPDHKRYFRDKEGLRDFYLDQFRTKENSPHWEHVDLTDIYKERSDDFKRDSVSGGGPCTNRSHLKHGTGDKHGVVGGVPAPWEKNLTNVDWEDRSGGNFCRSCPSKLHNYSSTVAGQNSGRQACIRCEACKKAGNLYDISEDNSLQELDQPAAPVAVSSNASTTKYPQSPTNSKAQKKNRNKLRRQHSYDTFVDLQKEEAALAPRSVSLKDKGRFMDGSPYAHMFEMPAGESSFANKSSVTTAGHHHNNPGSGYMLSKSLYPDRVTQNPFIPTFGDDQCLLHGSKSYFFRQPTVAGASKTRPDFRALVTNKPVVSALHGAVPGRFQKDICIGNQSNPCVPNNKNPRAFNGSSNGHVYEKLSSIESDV

For the compound `c1ccc(/N=N/c2ccc(CCNc3ccncc3)cc2)cc1` [OptoNAM-3, (E)-N-(4-(Phenyldiazenyl)phenethyl)pyridin-4-amine], the “inhibition of GluN1/GluN2A/GluN2B triheteromers” value is 11.404% in assay [1] and 11.4% ± 0.9% in assay [1] (listed as trans-OptoNAM-3). The “inhibition of GluN1/GluN2B-DeltaNTD” value in assay [2] (1 µM trans-OptoNAM-3 (dark), calculated from the dose-response curve) is on record as 2.150%. For the same compound, the IC50 in assay [2] (365 nm PSS, read-out: IC50 on GluN1/GluN2B-ΔNTD receptors pre-illuminated with 365 nm) worked out at 25 ± 6 µM; in assay [2] (dark, read-out: IC50 on GluN1/GluN2B-ΔNTD receptors in the dark), 20 ± 4 µM. The “Relative current (IOpto/I0)” value in assay [2] (OptoNAM-3 365 nm PSS, [OptoNAM-3] 0.3 µM) came out at 0.952; in assay [2] (OptoNAM-3 365 nm PSS, [OptoNAM-3] 2 µM), 0.900; in assay [2] (OptoNAM-3 365 nm PSS, [OptoNAM-3] 5 µM), 0.779; in assay [2] (OptoNAM-3 365 nm PSS, [OptoNAM-3] 20 µM), 0.661; in assay [2] (OptoNAM-3 365 nm PSS, [OptoNAM-3] 30 µM) it was 0.421; in assay [2] (OptoNAM-3 365 nm PSS, [OptoNAM-3] 67 µM) it was 0.119. For the same compound, the “Relative current (IOpto/I0)” value in assay [2] (OptoNAM-3 dark PSS (trans), [OptoNAM-3] 0.3 µM) is reported as 0.969; in assay [2] (OptoNAM-3 dark PSS (trans), [OptoNAM-3] 2 µM), 0.866; in assay [2] (OptoNAM-3 dark PSS (trans), [OptoNAM-3] 5 µM), 0.809; in assay [2] (OptoNAM-3 dark PSS (trans), [OptoNAM-3] 20 µM), 0.542; in assay [2] (OptoNAM-3 dark PSS (trans), [OptoNAM-3] 30 µM), 0.365; in assay [2] (OptoNAM-3 dark PSS (trans), [OptoNAM-3] 67 µM), 0.033. The “shift in IC50 between wt and GluN1/GluN2B-ΔNTD receptors” value in assay [2] (dark) turned out to be 100 fold. Also, the inhibition at 10 µM in assay [3] (10 µM OptoNAM-3 365 nm PSS, construct GluK2, read-out: Inhibition (%)) was -1.6%; in assay [3] (10 µM OptoNAM-3 dark PSS (trans), construct GluK2, read-out: Inhibition (%)), 3.1%; in assay [3] (10 µM, dark PSS, concanavalin A treated, read-out: inhibition of GluK2 currents) it was 3.1 ± 3.4%. Besides, the “Inhibition, individual values” in assay [3] (10 µM OptoNAM-3 dark PSS (trans) as headed, second block) is -0.01064 and 0.02708 and -0.08821 and 0.02098 and -0.02821; in assay [3] (10 µM OptoNAM-3 dark PSS (trans), first block), 0.1443 and -0.06723 and 0.004392 and 0.02857 and 0.0441. Moreover, the “inhibition of GluK2 currents” value in assay [3] (10 µM, dark PSS, concanavalin A treated) is listed as “no effect”.

The record behind these values is PMC11413854, “Reversible Control of Native GluN2B-Containing NMDA Receptors with Visible Light” (ACS Chemical Neuroscience, 2024).
